Results from ChEMBL document CHEMBL2413064, “Synthesis and α-glucosidase inhibitory activity evaluation of N-substituted aminomethyl-β-d-glucopyranosides” (Bioorg Med Chem, 2013).

Columns and labels:
Alpha-glucosidase MAL12 = Alpha-glucosidase MAL12 (Saccharomyces cerevisiae S288c, UniProt P53341); experiment: Inhibition of Saccharomyces cerevisiae alpha-glucosidase assessed as 4-nitrophenol release from 4-nitrophenyl alpha-D-glucopyranoside preincubated for 15 mins measured after 15 mins
[1] = target: T1, Sucrase-isomaltase, intestinal (Rattus norvegicus, UniProt P23739); experiment: Inhibition of rat intestinal sucrase using sucrose as substrate assessed as D-glucose release from substrate preincubated for 15 mins measured after 60 mins
T1 sequence (P23739 1-1013 limits assumed): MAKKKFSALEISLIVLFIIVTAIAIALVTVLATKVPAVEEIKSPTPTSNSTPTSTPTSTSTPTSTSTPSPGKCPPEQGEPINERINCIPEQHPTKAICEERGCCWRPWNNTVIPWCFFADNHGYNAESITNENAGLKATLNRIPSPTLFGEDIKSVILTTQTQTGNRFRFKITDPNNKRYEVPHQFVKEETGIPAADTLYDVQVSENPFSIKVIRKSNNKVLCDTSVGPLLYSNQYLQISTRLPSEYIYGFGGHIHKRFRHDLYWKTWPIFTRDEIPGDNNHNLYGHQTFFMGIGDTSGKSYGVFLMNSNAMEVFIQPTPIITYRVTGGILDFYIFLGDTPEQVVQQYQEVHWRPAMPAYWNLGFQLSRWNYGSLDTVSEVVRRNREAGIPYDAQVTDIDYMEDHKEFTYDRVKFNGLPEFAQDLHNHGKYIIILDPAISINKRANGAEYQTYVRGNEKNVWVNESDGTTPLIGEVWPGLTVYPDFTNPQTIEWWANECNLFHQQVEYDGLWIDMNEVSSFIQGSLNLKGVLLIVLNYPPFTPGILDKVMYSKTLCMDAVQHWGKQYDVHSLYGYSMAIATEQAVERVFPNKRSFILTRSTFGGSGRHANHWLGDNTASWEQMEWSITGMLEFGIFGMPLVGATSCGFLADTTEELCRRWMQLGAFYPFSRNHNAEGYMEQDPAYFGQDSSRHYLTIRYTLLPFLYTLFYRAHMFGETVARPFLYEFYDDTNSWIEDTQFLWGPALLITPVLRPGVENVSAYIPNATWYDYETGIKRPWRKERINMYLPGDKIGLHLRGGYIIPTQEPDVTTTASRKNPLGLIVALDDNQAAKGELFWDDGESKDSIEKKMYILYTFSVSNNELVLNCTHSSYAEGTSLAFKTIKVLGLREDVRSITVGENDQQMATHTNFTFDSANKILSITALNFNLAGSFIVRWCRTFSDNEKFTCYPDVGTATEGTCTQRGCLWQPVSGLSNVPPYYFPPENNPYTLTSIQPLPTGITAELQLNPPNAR
T1 sequence (P23739 1014-1841 limits assumed): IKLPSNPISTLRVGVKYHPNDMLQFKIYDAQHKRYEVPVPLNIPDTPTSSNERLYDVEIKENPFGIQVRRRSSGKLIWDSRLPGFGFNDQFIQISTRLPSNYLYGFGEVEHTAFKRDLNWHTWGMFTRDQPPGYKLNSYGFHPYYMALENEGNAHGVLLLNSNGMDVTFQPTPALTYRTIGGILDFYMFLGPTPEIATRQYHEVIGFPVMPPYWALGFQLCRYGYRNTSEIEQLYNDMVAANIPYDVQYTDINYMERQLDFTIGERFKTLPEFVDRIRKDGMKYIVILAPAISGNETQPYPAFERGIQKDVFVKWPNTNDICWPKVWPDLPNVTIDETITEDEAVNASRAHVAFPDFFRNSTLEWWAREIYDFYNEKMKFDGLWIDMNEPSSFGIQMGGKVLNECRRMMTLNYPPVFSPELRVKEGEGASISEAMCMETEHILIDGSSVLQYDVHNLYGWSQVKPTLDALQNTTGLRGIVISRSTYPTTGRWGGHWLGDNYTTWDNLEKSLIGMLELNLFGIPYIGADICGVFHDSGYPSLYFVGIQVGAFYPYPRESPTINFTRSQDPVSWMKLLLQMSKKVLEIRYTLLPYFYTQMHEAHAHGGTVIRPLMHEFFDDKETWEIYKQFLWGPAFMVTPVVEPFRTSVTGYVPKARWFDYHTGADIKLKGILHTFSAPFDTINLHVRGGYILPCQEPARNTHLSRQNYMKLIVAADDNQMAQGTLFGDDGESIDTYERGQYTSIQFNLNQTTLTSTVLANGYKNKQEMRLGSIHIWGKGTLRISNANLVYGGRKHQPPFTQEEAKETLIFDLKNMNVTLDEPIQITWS

[2] = target: Maltase-glucoamylase, intestinal (Rattus norvegicus)
[3] = target: T1, Sucrase-isomaltase, intestinal; experiment: Competitive inhibition of rat intestinal sucrase using sucrose as substrate by Lineweaver-Burk plot analysis

Alpha-glucosidase MAL12, sequence (P53341 whole entry): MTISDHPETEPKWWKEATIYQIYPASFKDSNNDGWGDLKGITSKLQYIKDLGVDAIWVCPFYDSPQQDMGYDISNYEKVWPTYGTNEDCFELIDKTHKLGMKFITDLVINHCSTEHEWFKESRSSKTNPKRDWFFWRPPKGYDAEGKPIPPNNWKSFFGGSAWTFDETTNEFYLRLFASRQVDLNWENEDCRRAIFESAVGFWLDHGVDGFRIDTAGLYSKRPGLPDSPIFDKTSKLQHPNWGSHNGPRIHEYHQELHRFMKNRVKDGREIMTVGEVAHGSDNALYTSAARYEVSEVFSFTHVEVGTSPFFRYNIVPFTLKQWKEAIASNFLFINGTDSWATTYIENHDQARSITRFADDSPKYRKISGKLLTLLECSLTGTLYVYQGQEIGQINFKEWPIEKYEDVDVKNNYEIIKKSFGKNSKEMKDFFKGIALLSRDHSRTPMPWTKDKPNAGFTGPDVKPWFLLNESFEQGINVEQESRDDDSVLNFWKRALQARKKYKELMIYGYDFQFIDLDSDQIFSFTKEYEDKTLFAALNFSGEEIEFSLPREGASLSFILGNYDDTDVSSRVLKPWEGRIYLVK

Row | Structure (SMILES) | IC50 (Alpha-glucosidase MAL12) [µM] | IC50 [1] [µM] | IC50 [2] [µM] | Ki [3] [µM]
1 | O=C(NC[C@@H]1O[C@H](CO)[C@@H](O)[C@H](O)[C@H]1O)c1ccc(O)cc1 | 1910 | 1640 | 758 | –
2 | O=C(NC[C@@H]1O[C@H](CO)[C@@H](O)[C@H](O)[C@H]1O)c1ccco1 | 534 | 770 | – | –
3 | O=C(NC[C@@H]1O[C@H](CO)[C@@H](O)[C@H](O)[C@H]1O)c1ccccc1O | 470 | > 2000 | 1010 | –
4 | O=C(NC[C@@H]1O[C@H](CO)[C@@H](O)[C@H](O)[C@H]1O)c1ccc(Cl)cc1Cl | 466 | 991 | 585 | –
5 | OC[C@H]1O[C@@H](CNCc2ccc(Cl)c(Cl)c2)[C@H](O)[C@@H](O)[C@@H]1O | 613 | 144 | 221 | –
6 | COc1ccc(CNC[C@@H]2O[C@H](CO)[C@@H](O)[C@H](O)[C@H]2O)c(OC)c1 | 622 | 105 | 160 | –
7 | COc1ccc(CNC[C@@H]2O[C@H](CO)[C@@H](O)[C@H](O)[C@H]2O)cc1 | 457 | 179 | 306 | –
8 | O=C(NC[C@@H]1O[C@H](CO)[C@@H](O)[C@H](O)[C@H]1O)c1ccc(F)cc1 | 1520 | 403 | 464 | –
9 | COc1ccc(CNC[C@@H]2O[C@H](CO)[C@@H](O)[C@H](O)[C@H]2O)cc1O | 465 | 186 | 407 | –
10 | O=C(NC[C@@H]1O[C@H](CO)[C@@H](O)[C@H](O)[C@H]1O)c1ccccc1 | 499 | > 2000 | 842 | –
11 | COc1ccccc1C(=O)NC[C@@H]1O[C@H](CO)[C@@H](O)[C@H](O)[C@H]1O | 471 | 1090 | 719 | –
12 | COc1ccc(C(=O)NC[C@@H]2O[C@H](CO)[C@@H](O)[C@H](O)[C@H]2O)c(OC)c1 | 1860 | > 2000 | – | –
13 | OC[C@H]1O[C@@H](CNCc2cccs2)[C@H](O)[C@@H](O)[C@@H]1O | 374 | 173 | 324 | –
14 | COc1cc(CNC[C@@H]2O[C@H](CO)[C@@H](O)[C@H](O)[C@H]2O)ccc1O | 377 | 186 | 223 | –

Stronger by IC50 (Alpha-glucosidase MAL12), values ahead:

Row | IC50 (Alpha-glucosidase MAL12) [µM] | IC50 [1] [µM] | IC50 [2] [µM] | Ki [3] [µM] | Structure (SMILES)
15 | 355 | 10.4 | – | 17.1 | CC(=O)Oc1ccc(/C=C/C(=O)NC[C@@H]2O[C@H](CO)[C@@H](O)[C@H](O)[C@H]2O)cc1OC(C)=O
16 | 325 | > 2000 | 445 | – | O=C(NC[C@@H]1O[C@H](CO)[C@@H](O)[C@H](O)[C@H]1O)c1cccs1
17 | 318 | 154 | – | – | OC[C@H]1O[C@@H](CNCc2ccc(Cl)cc2Cl)[C@H](O)[C@@H](O)[C@@H]1O
18 | 283 | 381 | – | – | O=C(NC[C@@H]1O[C@H](CO)[C@@H](O)[C@H](O)[C@H]1O)c1cccc([N+](=O)[O-])c1
19 | 231 | 795 | 831 | – | COc1ccc(C(=O)NC[C@@H]2O[C@H](CO)[C@@H](O)[C@H](O)[C@H]2O)cc1
20 | 225 | 15.6 | 7.7 | – | CC(=O)Oc1cc(C(=O)NC[C@@H]2O[C@H](CO)[C@@H](O)[C@H](O)[C@H]2O)cc(OC(C)=O)c1OC(C)=O
21 | 184 | 107 | – | – | COc1ccc(C(C)NC[C@@H]2O[C@H](CO)[C@@H](O)[C@H](O)[C@H]2O)cc1O (stereo partly specified)
22 | 156 | 181 | – | – | OC[C@H]1O[C@@H](CNCc2ccccc2O)[C@H](O)[C@@H](O)[C@@H]1O
23 | 149 | 124 | – | – | OC[C@H]1O[C@@H](CNCc2ccc(O)cc2)[C@H](O)[C@@H](O)[C@@H]1O
24 | 142 | 155 | – | – | CC(=O)Oc1ccc(/C=C/C(=O)NC[C@@H]2O[C@H](CO)[C@@H](O)[C@H](O)[C@H]2O)cc1
25 | 116 | 97.4 | – | – | OC[C@H]1O[C@@H](CNC/C=C/c2ccccc2)[C@H](O)[C@@H](O)[C@@H]1O
26 | 115 | 301 | 202 | – | OC[C@H]1O[C@@H](CNCc2ccc(F)cc2)[C@H](O)[C@@H](O)[C@@H]1O
27 | 102 | 253 | 382 | – | COc1cc(/C=C/C(=O)NC[C@@H]2O[C@H](CO)[C@@H](O)[C@H](O)[C@H]2O)ccc1O
28 | 101 | 1420 | 476 | – | Cc1ccc(S(=O)(=O)NC[C@@H]2O[C@H](CO)[C@@H](O)[C@H](O)[C@H]2O)cc1
29 | 96.5 | 160 | 165 | – | CC(=O)Oc1ccc(C(=O)NC[C@@H]2O[C@H](CO)[C@@H](O)[C@H](O)[C@H]2O)cc1
30 | 44.3 | 627 | 714 | – | O=[N+]([O-])c1cccc(CNC[C@@H]2O[C@H](CO)[C@@H](O)[C@H](O)[C@H]2O)c1
31 | 39.2 | 270 | 1330 | – | OC[C@H]1O[C@@H](CNCc2ccccc2)[C@H](O)[C@@H](O)[C@@H]1O
32 | 36.2 | 1000 | 846 | – | O=C(NC[C@@H]1O[C@H](CO)[C@@H](O)[C@H](O)[C@H]1O)c1ccc([N+](=O)[O-])cc1
33 | 5.6 | 405 | – | – | O=C(/C=C/c1ccc(O)cc1)NC[C@@H]1O[C@H](CO)[C@@H](O)[C@H](O)[C@H]1O
34 | 2.3 | 314 | – | – | O=C(/C=C/c1ccccc1)NC[C@@H]1O[C@H](CO)[C@@H](O)[C@H](O)[C@H]1O
